Columns and labels:
Trypanosoma cruzi [1] = assay: Antitrypanosomal activity against axenic cultures of Trypanosoma cruzi Y ATCC 50832GFP epimastigotes supplemented with fresh medium containing compound daily for 5 days by coulter counting method; assay type: functional, organism-based; details: 120 h
[2] = system: Trypanosoma brucei brucei; assay: Antitrypanosomal activity against Trypanosoma brucei brucei ATCC PRA-381 procyclic trypomastigotes supplemented with fresh medium containing compound daily for 4 days by coulter counting method; assay type: functional, organism-based; details: ATCC PRA-381, 96 h
NHDF = assay: Cytotoxicity against HDF cells assessed as reduction in cell viability measured after 48 hrs by resazurin dye based fluorescence assay; details: human
Cruzipain [3] = target: T1, Cruzipain (Trypanosoma cruzi, UniProt P25779); assay: Inhibition of Trypanosoma cruzi cruzain assessed as rate constant for enzyme-inhibitor complex using Cbz-Phe-Arg-AMC as substrate and measured up to 40 mins by fluorescence assay; details: read-out: Ki(app)
T1 sequence (P25779 whole entry): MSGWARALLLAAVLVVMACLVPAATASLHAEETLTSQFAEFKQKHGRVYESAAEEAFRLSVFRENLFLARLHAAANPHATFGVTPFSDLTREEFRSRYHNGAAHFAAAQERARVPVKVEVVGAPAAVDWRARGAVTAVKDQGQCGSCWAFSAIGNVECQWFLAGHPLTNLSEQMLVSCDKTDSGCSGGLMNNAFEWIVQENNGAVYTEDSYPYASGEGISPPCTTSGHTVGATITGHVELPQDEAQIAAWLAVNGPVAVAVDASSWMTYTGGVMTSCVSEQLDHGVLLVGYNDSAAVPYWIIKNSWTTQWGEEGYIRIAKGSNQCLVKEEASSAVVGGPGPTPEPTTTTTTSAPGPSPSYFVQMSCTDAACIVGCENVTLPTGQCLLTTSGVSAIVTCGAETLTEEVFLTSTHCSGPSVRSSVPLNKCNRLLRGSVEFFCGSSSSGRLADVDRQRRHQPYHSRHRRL

[4] = Glutathione reactivity of the compound in 10% DMSO (v/v)/pH 8 Tris buffer assessed as GSH adduct formation by measuring rate of-thiolation at 2:1 molar ratio of GSH/inhibitor by HPLC-MS analysis; assay type: ADME
[5] = Glutathione reactivity of the compound in 10% DMSO (v/v)/pH 8 Tris buffer assessed as GSH adduct formation by measuring equilibrium constant measured after 90 mins by HPLC-MS analysis; assay type: ADME
[6] = Glutathione reactivity of the compound in 10% DMSO (v/v)/pH 8 Tris buffer assessed as GSH adduct formation by measuring retention time at 0.5 mM by HPLC-MS analysis; assay type: ADME; details: pH 8, 500 µM
[7] = target: Cruzipain (Trypanosoma cruzi) (UniProt P25779); assay: Reversible inhibition of Trypanosoma cruzi cruzain assessed as rate constant K4 using Cbz-Phe-Arg-AMC as substrate preincubated for 1 hr followed by enzyme-compound mixture dilution in presence of substrate by fluorescence assay
Sequence of Cruzipain (Trypanosoma cruzi) (P25779 123-467 limits assumed): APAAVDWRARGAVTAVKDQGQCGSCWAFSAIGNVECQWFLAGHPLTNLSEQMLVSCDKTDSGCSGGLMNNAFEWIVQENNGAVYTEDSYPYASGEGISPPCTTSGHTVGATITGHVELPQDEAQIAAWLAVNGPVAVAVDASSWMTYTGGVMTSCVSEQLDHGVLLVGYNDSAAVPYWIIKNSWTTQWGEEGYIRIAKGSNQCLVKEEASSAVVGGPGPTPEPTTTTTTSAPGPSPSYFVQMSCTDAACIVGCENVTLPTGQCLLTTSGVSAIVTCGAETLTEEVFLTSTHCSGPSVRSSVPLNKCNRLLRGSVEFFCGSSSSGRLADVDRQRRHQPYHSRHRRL

[8] = Solubility of the compound in 10% DMSO v/v at 1 to 200 uM measured up to 120 mins; assay type: physicochemical; details: 2 h
Cruzipain [9] = target: T1, Cruzipain; assay: Inhibition of Trypanosoma cruzi cruzain using Cbz-Phe-Arg-AMC as substrate and measured up to 40 mins by fluorescence assay
[10] = target: Cruzipain (Trypanosoma cruzi) (UniProt P25779); assay: Reversible inhibition of Trypanosoma cruzi cruzain assessed as rate constant K3 using Cbz-Phe-Arg-AMC as substrate preincubated for 1 hr followed by enzyme-compound mixture dilution in presence of substrate by fluorescence assay
Procathepsin L = Procathepsin L (Homo sapiens, UniProt P07711); assay: Inhibition of human Cathepsin L assessed as rate constant for enzyme-inhibitor-substrate complex using Cbz-Phe-Arg-AMC as substrate measured up to 40 mins by fluorescence assay
Sequence of Procathepsin L (P07711 whole entry): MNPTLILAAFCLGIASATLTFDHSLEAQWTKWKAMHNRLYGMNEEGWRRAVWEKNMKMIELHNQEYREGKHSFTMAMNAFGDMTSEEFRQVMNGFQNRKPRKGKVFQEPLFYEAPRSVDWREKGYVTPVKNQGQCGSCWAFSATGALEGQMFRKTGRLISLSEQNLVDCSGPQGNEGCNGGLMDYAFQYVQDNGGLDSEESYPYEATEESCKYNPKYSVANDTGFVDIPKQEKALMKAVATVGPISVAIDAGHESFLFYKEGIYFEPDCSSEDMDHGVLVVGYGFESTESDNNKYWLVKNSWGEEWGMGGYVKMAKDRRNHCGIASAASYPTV

Cathepsin B = Cathepsin B (Homo sapiens, UniProt P07858); assay: Inhibition of human Cathepsin B assessed as rate constant for enzyme-inhibitor-substrate complex using Cbz-Phe-Arg-AMC as substrate measured up to 40 mins by fluorescence assay
Cathepsin S = Cathepsin S (Homo sapiens, UniProt P25774); assay: Inhibition of recombinant human Cathepsin S expressed in Escherichia coli assessed as rate constant for enzyme-inhibitor-substrate complex using Cbz-Phe-Arg-AMC as substrate measured up to 40 mins by fluorescence assay
Sequence of Cathepsin S (P25774 whole entry): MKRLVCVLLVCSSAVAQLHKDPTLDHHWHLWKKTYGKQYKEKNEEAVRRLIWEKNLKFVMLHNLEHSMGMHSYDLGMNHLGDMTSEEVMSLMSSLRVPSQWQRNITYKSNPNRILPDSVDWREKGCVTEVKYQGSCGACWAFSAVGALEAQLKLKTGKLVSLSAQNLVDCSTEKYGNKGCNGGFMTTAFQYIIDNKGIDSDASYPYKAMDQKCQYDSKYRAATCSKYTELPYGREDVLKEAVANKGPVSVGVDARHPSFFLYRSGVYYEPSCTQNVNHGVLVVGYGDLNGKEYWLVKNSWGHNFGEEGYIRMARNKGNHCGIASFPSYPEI

[11] = Selectivity ratio of Ki for human Cathepsin L to Ki for Trypanosoma cruzi cruzain; assay type: toxicity
[12] = Selectivity ratio of Ki for human Cathepsin B to Ki for Trypanosoma cruzi cruzain; assay type: toxicity
[13] = Selectivity ratio of Ki for human Cathepsin S to Ki for Trypanosoma cruzi cruzain; assay type: toxicity
Trypanosoma cruzi [14] = assay: Potency index, ratio of K11777 IC50 to test compound IC50 for axenic cultures of Trypanosoma cruzi Y ATCC 50832GFP epimastigotes; assay type: functional
Trypanosoma cruzi [15] = assay: Antitrypanosomal activity against Trypanosoma cruzi Ca-I/72 infected in mouse C2C12 cells measured after 48 hrs by 4',6-diamidino-2-phenylindole staining based microscopic analysis; assay type: functional, organism-based; details: Ca-I/72, C2C12, 48 h
C2C12 = assay: Cytotoxicity against mouse C2C12 cells assessed as reduction in cell viability measured after 48 hrs by 4',6-diamidino-2-phenylindole staining based microscopic analysis; details: c2c12, 48 h
[16] = Selectivity index, ratio of CC50 for HDF cells to EC50 for Trypanosoma cruzi Ca-I/72 infected in mouse C2C12 cells; assay type: toxicity, cell-based; details: read-out: Ratio CC50/EC50
[17] = system: Trypanosoma brucei brucei; assay: Antitrypanosomal activity against Trypanosoma brucei brucei ATCC PRA-383 bloodstream forms supplemented with fresh medium containing compound daily for 4 days by coulter counting method; details: ATCC PRA-383, 96 h
[18] = target: Cruzipain (Trypanosoma cruzi) (UniProt P25779); assay: Irreversible inhibition of Trypanosoma cruzi cruzain assessed as ratio of Kinact to Ki using Cbz-Phe-Arg-AMC as substrate by fluorescence assay
[19] = Glutathione reactivity of the compound in 10% DMSO (v/v)/pH 8 Tris buffer assessed as GSH adduct formation by measuring rate of-thiolation at 0.5 mM by HPLC-MS analysis; assay type: ADME; details: pH 8, 500 µM
Trypanosoma cruzi [20] = assay: Antitrypanosomal activity against Trypanosoma cruzi Brazil epimastigotes measured after 48 hrs by [3H]thymidine incorporation based beta-counting method; assay type: functional, organism-based

O=C(N[C@@H](Cc1ccccc1)C(=O)N[C@H](/C=C/c1ncco1)Cc1ccccc1)OCc1ccccc1
EC50 (Trypanosoma cruzi [1]): > 20 µM
EC50 [2]: 27 µM
CC50 (NHDF): > 100 µM

C[n+]1ccccc1/C=C/[C@H](CCc1ccccc1)NC(=O)[C@H](Cc1ccccc1)NC(=O)OCc1ccccc1
Ki (Cruzipain [3]): 0.76 µM
K [4]: 54 M⁻¹ s⁻¹
Ke [5]: 2400 M⁻¹
Retention_time [6]: 4.72 min
K [7]: 0.00019 s⁻¹
solubility [8]: >= 50 uM
Ki (Cruzipain [9]): 2 to 4.3 µM
K [10]: 0.0012 to 0.004 s⁻¹
Ki (Procathepsin L): 0.88 µM
Ki (Cathepsin B): 37 µM
Ki (Cathepsin S): 0.32 µM
Ratio Ki [11]: > 10
Ratio Ki [12]: > 10
Ratio Ki [13]: > 10
EC50 (Trypanosoma cruzi [1]): 2.1 µM
Ratio IC50 (Trypanosoma cruzi [14]): 10
EC50 (Trypanosoma cruzi [15]): 5.4 µM
CC50 (C2C12): > 10 µM
EC50 [2]: 5.9 µM
CC50 (NHDF): > 100 µM
selectivity ratio [16]: > 20
EC50 [17]: 2.8 µM

O=C(N[C@@H](Cc1ccccc1)C(=O)N[C@H](/C=C/c1ccccc1)Cc1ccccc1)OCc1ccccc1
solubility [8]: <= 2 uM

C[n+]1ccccc1/C=C/[C@H](Cc1ccccc1)NC(=O)[C@H](Cc1ccccc1)NC(=O)OCc1ccccc1.[I-]
K [4]: 37 M⁻¹ s⁻¹
Ke [5]: 7400 M⁻¹
solubility [8]: >= 50 uM
Ratio Ki [11]: >= 3
Ratio Ki [12]: 40
Ratio Ki [13]: >= 3
EC50 (Trypanosoma cruzi [1]): 8.7 µM
Ratio IC50 (Trypanosoma cruzi [14]): 10
EC50 (Trypanosoma cruzi [15]): 9.9 µM
CC50 (C2C12): > 10 µM
EC50 [2]: 13 µM
CC50 (NHDF): > 100 µM
selectivity ratio [16]: > 10
EC50 [17]: 6.6 µM

O=C(N[C@@H](Cc1ccccc1)C(=O)N[C@H](/C=C/c1ncccn1)Cc1ccccc1)OCc1ccccc1
K [7]: 0.0018 s⁻¹
solubility [8]: >= 100 uM
CC50 (C2C12): > 10 µM
CC50 (NHDF): > 100 µM

O=C(N[C@@H](Cc1ccccc1)C(=O)N[C@H](/C=C/c1ncccn1)CCc1ccccc1)OCc1ccccc1
Ki (Cruzipain [3]): > 35 µM

C[n+]1ccsc1/C=C/[C@H](Cc1ccccc1)NC(=O)[C@H](Cc1ccccc1)NC(=O)OCc1ccccc1.[I-]
K [4]: 15 M⁻¹ s⁻¹
Ke [5]: 930 M⁻¹
Retention_time [6]: 3.61 min

O=C(N[C@@H](Cc1ccccc1)C(=O)N[C@H](/C=C/c1ccccn1)Cc1ccccc1)OCc1ccccc1
K [7]: 0.0012 s⁻¹
solubility [8]: <= 30 uM
EC50 (Trypanosoma cruzi [1]): > 20 µM
CC50 (C2C12): > 10 µM
CC50 (NHDF): > 100 µM

NC(=O)/C=C/[C@H](Cc1ccccc1)NC(=O)[C@H](Cc1ccccc1)NC(=O)OCc1ccccc1
kinact/Ki [18]: 21.7 M⁻¹ s⁻¹

O=C(N[C@@H](Cc1ccccc1)C(=O)N[C@H](/C=C/c1ccccn1)CCc1ccccc1)OCc1ccccc1
EC50 (Trypanosoma cruzi [1]): > 20 µM
EC50 (Trypanosoma cruzi [15]): 5.9 µM
CC50 (C2C12): > 10 µM
EC50 [2]: > 10 µM
CC50 (NHDF): > 100 µM
EC50 [17]: 4 µM

O=C(N[C@@H](Cc1ccccc1)C(=O)N[C@H](/C=C/c1ccc([N+](=O)[O-])cc1)Cc1ccccc1)OCc1ccccc1
solubility [8]: <= 2 uM

CN1CCN(C(=O)N[C@@H](Cc2ccccc2)C(=O)N[C@H](/C=C/c2ncccn2)CCc2ccccc2)CC1
Ki (Cruzipain [3]): > 10 µM
EC50 (Trypanosoma cruzi [1]): 20 µM
EC50 [2]: 15 µM
EC50 [17]: > 20 µM

NC(=O)/C=C/[C@H](CCc1ccccc1)NC(=O)[C@H](Cc1ccccc1)NC(=O)OCc1ccccc1
kinact/Ki [18]: 1700 M⁻¹ s⁻¹

CN1CCN(C(=O)N[C@@H](Cc2ccccc2)C(=O)N[C@H](/C=C/C(N)=O)CCc2ccccc2)CC1
kinact/Ki [18]: 1900 M⁻¹ s⁻¹

CN1CCN(C(=O)N[C@@H](Cc2ccccc2)C(=O)N[C@H](/C=C/S(=O)(=O)c2ccccc2)CCc2ccccc2)CC1 [K-777]
K [19]: 0.00028 s⁻¹
Retention_time [6]: 4.64 min
EC50 (Trypanosoma cruzi [1]): > 20 µM
EC50 (Trypanosoma cruzi [15]): 0.7 µM
CC50 (C2C12): > 10 µM
EC50 [2]: 1.7 µM
CC50 (NHDF): 60 to 100 µM
EC50 (Trypanosoma cruzi [20]): 60 µM
EC50 [17]: 0.09 µM

COc1ccnc(/C=C/[C@H](CCc2ccccc2)NC(=O)[C@H](Cc2ccccc2)NC(=O)OCc2ccccc2)c1
Ki (Cruzipain [3]): > 5 µM
